Data reported in patent publication US9096601B2 (CSPC Zhongqi Pharmaceutical Technology (Shijiazhuang) Co., …, priority 2010, dated 2015).

How the values were obtained:
[1] = tested on: human acute myelogenous leukemia cell strain MV4-11; assay: In-vivo anti-tumor test, NOD-SCID mouse subcutaneously transplanted human leukemic solid tumor model; conditions: NOD-SCID mice, intragastric
Description: The object of this assay was to determine the in-vivo anti-tumor effect of the present compound. In this assay, a NOD-SCID mouse subcutaneously transplanted human leukemic solid tumor model was used to test the present compound 8-29 for the in-vivo anti-tumor activity. The used cell strain was human acute myelogenous leukemia cell strain MV4-11.
NOD-SCID mice, aged 6-8 weeks, were inoculated with MV4-11 cell subcutaneously at the posterior segment of rib in a concentration of about 1×10^7 cells/0.1 ml per mouse. Upon the growth of the tumor up to 400-500 mm^3 (about 20 days), mice were grouped (n=6) and administrated intragastrically.
Observation Indices: the mice were measured every three days for the weight, and the length and width of tumor, and the tumor volume was calculated as length×width^2×0.52. […] 3. Results

[2] = tested on: liver cancer cell strain Hep G2; assay: In-vitro tumor cell proliferation inhibition, MTT; type: cell-based, human; conditions: 72 hours, read-out: HEPG2 (IC50)
[3] = tested on: breast carcinoma cell strain BT474; assay: In-vitro tumor cell proliferation inhibition, MTT; type: cell-based, human; conditions: 72 hours
Summary of the method: (§1)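 A431, HCC827, SW620 and BT474 cells (HCC827 seeded at 6×10^4 cells/ml) treated overnight-after-plating with graded compound concentrations for 72 h at 37° C; MTT read at 570 nm. Inhibition calculated versus untreated control, triplicate wells, ≥3 repeats; reported as IC50 or inhibitory rate.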

[4] = tested on: malignant melanoma cell strain A375; assay: In-vitro tumor cell proliferation inhibition, MTT; type: cell-based, human; conditions: 72 hours
[5] = tested on: breast carcinoma cell strain MDA-MB-468; assay: In-vitro tumor cell proliferation inhibition, MTT; type: cell-based, human; conditions: 72 hours
[6] = tested on: squamous cell carcinoma cell strain A431; assay: In-vitro tumor cell proliferation inhibition, MTT; type: cell-based, human; conditions: 72 hours
Summary of the method: as §1

[7] = tested on: colon cancer cell strain SW480; assay: In-vitro tumor cell proliferation inhibition, MTT; type: cell-based, human; conditions: 72 hours
[8] = tested on: chronic granulocytic leukemia cell strain K562; assay: In-vitro tumor cell proliferation inhibition, MTT; type: cell-based, human; conditions: 72 hours
[9] = tested on: acute myelogenous leukemia cell strain MV4-11; assay: In-vitro tumor cell proliferation inhibition, MTT; type: cell-based, human; conditions: 72 hours
[10] = tested on: colon cancer cell strain HCT116; assay: In-vitro tumor cell proliferation inhibition, MTT; type: cell-based, human; conditions: 72 hours
[11] = tested on: gastric cancer cell strain MK-45; assay: In-vitro tumor cell proliferation inhibition, MTT; type: cell-based, human; conditions: 72 hours, read-out: MK45 (IC50)
[12] = tested on: colon cancer cell strain SW620; assay: In-vitro tumor cell proliferation inhibition, MTT; type: cell-based, human; conditions: 72 hours
Summary of the method: as §1

## CC(C)n1c(Nc2cccnc2)nc2cnc(Nc3ccc(N4CCN(C)CC4)cc3)nc21 [Compounds 8-29]
[1]; MV4-11 xenograft, 5 mg/kg q.d. or higher (5, 10, 20 mg/kg q.d.)
  in-vivo tumor growth inhibition: substantial in-vivo growth inhibition
[1]; 5-20 mg/kg q.d.
  toxicity (untoward reactions: weight reduction, exanthema, diarrhea): low toxicity
[2]
  IC50: > 10 µM
[3]
  IC50: 2.25 µM
[4]
  IC50: 1.88 µM
[5]
  IC50: 8.12 µM
[6]
  IC50: 9.02 µM
[7]
  IC50: > 10 µM
[8]
  IC50: 0.24 µM
[9]
  IC50: 0.004 µM
[10]
  IC50: 2.48 µM
[11]
  IC50: 8.17 µM
[12]
  IC50: 5.8 µM
